From patent US9090618B2, “Substituted benzimidazole-type piperidine compounds and uses thereof” (priority 2012, dated 2015)

Molecular target: human opioid receptor-like (ORL-1) (Homo sapiens (Human), UniProt P41146)
Assay: In vitro ORL-1 receptor [35S]GTPγS functional assay
Assay type: biochemical

Chain of human opioid receptor-like (ORL-1) (P41146 whole entry): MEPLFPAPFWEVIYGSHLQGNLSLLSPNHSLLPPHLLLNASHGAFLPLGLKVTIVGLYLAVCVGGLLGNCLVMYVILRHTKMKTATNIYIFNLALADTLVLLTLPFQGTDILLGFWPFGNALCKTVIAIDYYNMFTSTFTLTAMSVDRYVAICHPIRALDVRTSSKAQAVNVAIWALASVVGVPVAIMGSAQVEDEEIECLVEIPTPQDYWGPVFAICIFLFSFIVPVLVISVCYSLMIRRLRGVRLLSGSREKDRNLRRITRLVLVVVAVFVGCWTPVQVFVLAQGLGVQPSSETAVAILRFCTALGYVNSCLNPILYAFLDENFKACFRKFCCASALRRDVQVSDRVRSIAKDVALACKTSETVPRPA

COc1cnc(-c2nc3ccccc3n2[C@H]2C[C@H]3CCC[C@@H](C2)N3[C@H]2C[C@@H]3CCC[C@@H](C3)C2)cn1 [ZA63, (1R,1′R,3r,3′R,5S,5′S)-3′-(2-(5-methoxypyrazin-2-yl)-1H-benzo[d]imidazol-1-yl)-9′-aza-3,9′-bi(bicyclo[3.3.1]nonane)]
EC50: > 20000 nM

c1ccc2c(c1)nc(-c1nnn[nH]1)n2[C@H]1C[C@H]2CCC[C@@H](C1)N2[C@@H]1C[C@@H]2CCCC[C@@H](C2)C1 [ZA39, 1-((1R,3R,5S)-9-((1R,6S,8r)-bicyclo[4.3.1]decan-8-yl)-9-azabicyclo[3.3.1]nonan-3-yl)-2-(1H-tetrazol-5-yl)-1H-benzo[d]imidazole]
EC50: > 20000 nM

COc1cnc(-c2nc3ccccc3n2[C@H]2C[C@H]3CCC[C@@H](C2)N3[C@@H]2C[C@@H]3CCCC[C@@H](C3)C2)cn1 [ZA42, 1-((1R,3R,5S)-9-((1R,6S,8r)-bicyclo[4.3.1]decan-8-yl)-9-azabicyclo[3.3.1]nonan-3-yl)-2-(5-methoxypyrazin-2-yl)-1H-benzo[d]imidazole]
EC50: > 20000 nM

O=C(O)CCN1CC[C@H](c2nc3ccccc3n2[C@H]2C[C@H]3CCC[C@@H](C2)N3[C@@H]2C[C@@H]3CCCC[C@@H](C3)C2)C1 [H32d(ii), 3-((S)-3-(1-((1R,3R,5S)-9-((1R,6S,8s)-bicyclo[4.3.1]decan-8-yl)-9-azabicyclo[3.3.1]nonan-3-yl)-1H-benzo[d]imidazol-2-yl)pyrrolidin-1-yl)propanoic acid]
EC50: 160 ± 35 nM

O=C(O)CCN1CCC(c2nc3ccccc3n2[C@H]2C[C@H]3CCC[C@@H](C2)N3[C@@H]2C[C@@H]3CCCC[C@@H](C3)C2)CC1 [ZA08, 3-(4-(1-((1R,3R,5S)-9-((1R,6S,8s)-bicyclo[4.3.1]decan-8-yl)-9-azabicyclo[3.3.1]nonan-3-yl)-1H-benzo[d]imidazol-2-yl)piperidin-1-yl)propanoic acid]
EC50: 253 ± 20 nM

O=c1cc(-c2nc3ccccc3n2[C@H]2C[C@H]3CCC[C@@H](C2)N3[C@@H]2C[C@@H]3CCCC[C@@H](C3)C2)[nH]c(=O)[nH]1 [ZA71, 6-(1-((1R,3R,5S)-9-((1R,6S,8r)-bicyclo[4.3.1]decan-8-yl)-9-azabicyclo[3.3.1]nonan-3-yl)-1H-benzo[d]imidazol-2-yl)pyrimidine-2,4(1H,3H)-dione]
EC50: > 20000 nM

COCCOCCOCCN1CCC[C@@H](c2nc3ccccc3n2[C@H]2C[C@H]3CCC[C@@H](C2)N3[C@H]2C[C@@H]3CCC[C@@H](C3)C2)C1 [ZA11, (1R,1′R,3r,3′R,5S,5′S)-3′-(2-((R)-1-(2-(2-(2-methoxyethoxy)ethoxy)ethyl)piperidin-3-yl)-1H-benzo[d]imidazol-1-yl)-9′-aza-3,9′-bi(bicyclo[3.3.1]nonane)]
EC50: 502 ± 99 nM

O=C(O)CN1CCC(c2nc3ccccc3n2[C@H]2C[C@H]3CCC[C@@H](C2)N3[C@@H]2C[C@@H]3CCCC[C@@H](C3)C2)CC1 [ZA07, 2-(4-(1-((1R,3R,5S)-9-((1R,6S,8s)-bicyclo[4.3.1]decan-8-yl)-9-azabicyclo[3.3.1]nonan-3-yl)-1H-benzo[d]imidazol-2-yl)piperidin-1-yl)acetic acid]
EC50: 140 ± 17 nM

O=C(O)C1CCN(Cc2nc3ccccc3n2[C@H]2C[C@H]3CCC[C@@H](C2)N3[C@H]2C[C@@H]3CCC[C@@H](C3)C2)CC1 [ZA23, 1-((1-((1R,1′R,3r,3′R,5S,5′S)-[3,9′-bi(9′-azabicyclo[3.3.1]nonan)]-3′-yl)-1H-benzo[d]imidazol-2-yl)methyl)piperidine-4-carboxylic acid]
EC50: > 20000 nM

COCCOCCOCCN1CCC[C@H](c2nc3ccccc3n2[C@H]2C[C@H]3CCC[C@@H](C2)N3[C@H]2C[C@@H]3CCC[C@@H](C3)C2)C1 [ZA12, (1R,1′R,3r,3′R,5S,5′S)-3′-(2-((S)-1-(2-(2-(2-methoxyethoxy)ethoxy)ethyl)piperidin-3-yl)-1H-benzo[d]imidazol-1-yl)-9′-aza-3,9′-bi(bicyclo[3.3.1]nonane)]
EC50: 390 ± 34 nM

O=C(O)CN1CCC[C@@H]1c1nc2ccccc2n1[C@H]1C[C@H]2CCC[C@@H](C1)N2C1CCCCCCCCC1 [E30c(ii), 2-((R)-2-(1-((1R,3r,5S)-9-cyclodecyl-9-azabicyclo[3.3.1]nonan-3-yl)-1H-benzo[d]imidazol-2-yl)pyrrolidin-1-yl)acetic acid]
EC50: 336 ± 27 nM
